From article PMC9611758, “Bioactive Platinum(IV) Complexes Incorporating Halogenated Phenylacetates” (Molecules, 2022)
Entries after “also recorded” stand apart in the source; their conditions may differ.

Assays:
[1] = test system: MCF-7 breast; experiment: MTT growth inhibition assay, MCF-7; type: cell-based, human; conditions: MTT assay, 72 h
[2] = test system: BE2-C neuroblastoma; experiment: MTT growth inhibition assay, BE2-C; type: cell-based, human; conditions: 72 h
[3] = test system: MIA pancreas; experiment: MTT growth inhibition assay, MIA; type: cell-based, human; conditions: 72 h
[4] = test system: A431 skin; experiment: MTT growth inhibition assay, A431; type: cell-based, human; conditions: 72 h
[5] = Reduction experiments with AsA by 1H-NMR and 1D-195Pt-NMR; type: physicochemical; conditions: D2O, 37 °C; for T50% (approximate time at which 50% reduction occurs): 10 mM PBS (~7.4 pH); for extent of reduction 1 h after the final 1H-NMR experiment (1D-195Pt-NMR): regions −2800 and 400 ppm
Source text: Platinum(IV) complexes are reduced to their platinum(II) precursors by intracellular biological reducing agents such as AsA or GSH in tumour cells. However, the precise mechanism by which reduction occurs is not fully understood. In this paper, reduction reaction experiments were undertaken on the synthesised platinum(IV) complexes, 1–8, with the aid of ^1H-NMR and 1D-^195Pt-NMR spectroscopy. The method used for the reduction reaction experiments was adapted from the literature without modifications. A total of 10 mM PBS (~7.4 pH) was selected as media, and AsA was used as the biological reducing agent to investigate the reduction property of 1–8. Prior to the reduction reaction experiments, a control was prepared where each metal complex was dissolved with PBS in D2O. 1D-^195Pt-NMR was measured within the regions of −2800 and 400 ppm (30 min per region), at 37 °C. This was undertaken to confirm that the PBS would not interfere with the reduction process of the metal complexes. […] The approximate time points for the studied complexes at which an estimated 50% reduction had occurred, in the presence of AsA, as represented by T50%, are summarised in Table 6.
The reduction properties of 1–8 were monitored using ^1H-NMR and 1D-^195Pt-NMR spectroscopy on a 400 MHz Bruker (Melbourne, VIC, Australia) Avance Spectrometer. A sequence of ^1H-NMR experiments was carried out for 1 h at 37 °C, followed by 1D-^195Pt-NMR within the regions of −2800 and 400 ppm. An amount of 10 mM PBS (~7.4 pH) was transferred to a vial and reduced to dryness through rotary evaporation. AsA (~1 mg) was combined with the metal complex (~5 mg) and transferred to the vial containing the dried PBS. A total of 600 µL of D2O was then added to the vial to dissolve the complex, AsA, and the PBS together.

[6] = test system: HT29 colon cells; experiment: ROS detection assay (DCFH-DA); type: cell-based, human; conditions: HT29 colon cells, treated at GI50 concentration (TBHP positive control 20 μM)
Source text: Although ROS is required for cancer cell function and progression, it can induce programmed cell death or apoptosis. […] In this study, we report the ROS activity of the studied platinum(IV) complexes, 1–8, together with the individual axial ligands (4-CPA, 4-FPA, 4-BPA, and 4-IPA) in the human cancer cell line, HT29 colon (Figure 19, Table 8, and Figure S95). The ROS potential of their platinum(II) and platinum(IV) precursors in the same cell line is also presented for comparison purposes (Table 8). […] HT29 colon cells were stained by DCFH-DA and then treated with the complexes at each specific GI50 concentration. Upon ROS production, the DCFH-DA produced dichlorodihydrofluorescein, a fluorescent product. The measured fluorescence was, therefore, proportional to the produced ROS.
To investigate the presence of ROS in treated cells, a DCFDA/H2DCFDA-cellular ROS Assay Kit (Abcam, Cambridge, MA, USA) was used, as previously described. A total of 25,000 cells/mL of HT29 cells in DMEM were seeded in 96-well plates. Cells were washed with 1X kit buffer, and then stained with 25 μM 2′,7′-dichlorofluorescein diacetate (DCFH-DA) and incubated for 45 min. DCFH-DA was then removed, and cells were then re-washed with 1X kit buffer, after which phenol red free media was added. Cells were then treated with a GI50 drug concentration for each complex. The plates were directly scanned to measure fluorescence (relative fluorescence units (RFU)) at different time points using the Glo-Max®-Multimode microplate reader (Promega Corporation, Alexandra, VIC, Australia) at an excitation/emission of 485/535 nm. To generate the positive control (20 μM tert-butyl hydroperoxide (TBHP)), cells were washed with 1X kit buffer, and stained with DCFDA (25 μM) for 45 min; this was removed and TBHP was added in phenol red free media, and the resulting solution was scanned as described above.

[7] = test system: U87 glioblastoma; experiment: MTT growth inhibition assay, U87; type: cell-based, human; conditions: 72 h
[8] = test system: A2780 ovarian; experiment: MTT growth inhibition assay, A2780; type: cell-based, human; conditions: 72 h
[9] = test system: panel of cell lines; experiment: MTT growth inhibition assay, whole panel of cell lines; type: cell-based, human; conditions: average over the cell lines tested, MTT assay, 72 h
[10] = test system: H460 lung; experiment: MTT growth inhibition assay, H460; type: cell-based, human; conditions: 72 h
[11] = test system: SJ-G2 glioblastoma; experiment: MTT growth inhibition assay, SJ-G2; type: cell-based, human; conditions: 72 h
[12] = Lipophilicity by HPLC (log kw); type: physicochemical; conditions: for log kw: chromatographic lipophilicity index, extrapolated to 100% d.i.H2O; for log kw (y-intercept of log k versus [CH3CN] % plot, Figure S80): linear fit
Source text: For lipophilicity measurements, HPLC was utilised instead of the traditional shake-flask method, as described previously. Recent studies have also reported the efficiency of HPLC in measuring the lipophilicity of compounds [79, 80]. Each complex was eluted under several isocratic ratios. A standard curve was generated to calculate the log value of the capacity factor (log k) according to Equation (1). Following Equation (2), the percentage of organic solvent (CH3CN) in the mobile phase from each isocratic run was plotted against log kw (Figure S80). Log kw is the chromatographic lipophilicity index or measure of lipophilicity of the complex, so a higher value corresponds to greater lipophilicity. Because the selected axial ligands in this study contain F, Cl, Br, and I, it was only appropriate to determine the influence of the halogens on the overall lipophilicity of the platinum(IV) complexes. […] Conversely, the least lipophilic complex was the phen derivative containing 4-FPA, 3, with a log kw of 0.25. Furthermore, for the phen derivatives, the order of increasing lipophilicity was 3 > 1 > 5 > 7, which corresponds to the order of increasing size of the halogens, F > Cl > Br > I. This pattern was also observed with the 5,6-Me2phen derivatives (4 > 2 > 6 > 8), thereby confirming that the halogens increased the order of lipophilicity accordingly based on their size.
For lipophilicity measurements, analytical HPLC was utilised. Elution profiles were acquired on an Agilent (Melbourne, VIC, Australia) Technologies 1260 Infinity instrument equipped with a Phenomenex Onyx^TM Monolithic C18-reverse phase column (100 × 4.6 mm, 5 µm pore size) (Sydney, NSW, Australia). The mobile phase consisted of solvents, A (0.06% TFA in d.i.H2O) and B (0.06% TFA in CH3CN/d.i.H2O (90:10)). Potassium iodide was used as an external dead volume marker to determine the dead time of the column. Retention times (TR) were measured at varying isocratic ratios ranging from 30 to 36% of solvent B at 1 mL·min^−1 mL. An injection volume of 10 µL was utilised. Capacity factors were determined according to Equation (1):(1) k=(TR−T0)/T0 where k is the capacity factor, TR is the retention time of the analyte, and T0 represents the dead time. A minimum of four different mobile compositions were used for each complex to calculate k. A linear plot was generated of log k against the concentration of CH3CN in the mobile phase to determine the value of log kw expressed by Equation (2):(2) logk=Sφ+logkw where S is the slope, φ is the concentration of the CH3CN in the mobile phase, and log kw represents the capacity factor of the complex in 100% d.i.H2O. Extrapolation of this linear plot to the y-intercept indicates the log kw value.

[13] = test system: non-tumour derived MCF10A breast line; experiment: MTT growth inhibition assay, MCF10A; type: cell-based, human; conditions: 72 h
[14] = test system: ADDP-resistant ovarian variant; experiment: MTT growth inhibition assay, ADDP; type: cell-based, human; conditions: for GI50: MTT assay, 72 h
[15] = test system: Du145 prostate; experiment: MTT growth inhibition assay, Du145; type: cell-based, human; conditions: for GI50: MTT assay, 72 h
[16] = test system: HT29 colon; experiment: MTT growth inhibition assay, HT29; type: cell-based, human; conditions: MTT assay, 72 h
[17] = Du145 prostate, ratio of GI50 values

SMILES | GI50 [1] | GI50 [2] | GI50 [3] | GI50 [4] | T50% (approximate time at which 50% reduction occurs) ([5]; 1H-NMR) | extent of reduction 1 h after the final 1H-NMR experiment (1D-195Pt-NMR) ([5]; PBS) | ROS production 24 h [6] | ROS production 48 h [6] | ROS production 72 h [6] | GI50 [7] | GI50 [8] | GI50 [9] | GI50 [10] | GI50 [11] | log kw [12] | log kw (y-intercept of log k versus [CH3CN] % plot, Figure S80) [12] | GI50 [13] | GI50 [14] | GI50 [15] | GI50 [16] | also measured
N[C@H]1CCCC[C@@H]1N.O=C(Cc1ccc(Cl)cc1)[O][Pt+2]1([OH])[N]2C=CC=c3ccc4c(c32)[N]1C=CC=4 [Complex 1, [Pt^IV(phen)(SS-DACH)(4-CPA)(OH)]^2+] | 860 ± 180 nM | 490 ± 93 nM | 270 ± 42 nM | 560 ± 73 nM | 15 to 20 min | reduced entirely to PHENSS; also recorded: complete reduction | 272 ± 9 RFU | 368 ± 19 RFU | 409 ± 11 RFU | 740 ± 230 nM | 280 ± 67 nM | 406 ± 90 nM | 380 ± 81 nM | 420 ± 92 nM | 0.75 | 0.7472 | 290 ± 90 nM | 290 ± 50 nM | 140 ± 43 nM | 150 ± 64 nM | time at which reduction starts ([5]; PBS, 1H-NMR): 5 min; extent of reduction at 1 h (1H-NMR) ([5]; PBS, 1 h): almost entirely reduced to its platinum(II) precursor, PHENSS
N[C@H]1CCCC[C@@H]1N.O=C(Cc1ccc(I)cc1)[O][Pt+2]1([OH])[N]2C=CC=c3ccc4c(c32)[N]1C=CC=4 [Complex 7, [Pt^IV(phen)(SS-DACH)(4-IPA)(OH)]^2+] | 490 ± 134 nM | 680 ± 38 nM | 360 ± 40 nM | 500 ± 180 nM | 30 min | partial reduction; also recorded: traces of platinum(IV) species were still observed | 211 ± 9.1 RFU | 281 ± 12 RFU | 322 ± 17 RFU | 1010 ± 95 nM | 280 ± 42 nM | 432 ± 60 nM | 380 ± 59 nM | 590 ± 23 nM | 0.90 | 0.895 | 280 ± 30 nM | 280 ± 24 nM | 110 ± 25 nM | 220 ± 33 nM | 
Cc1c(C)c2c3c4c1=CC=C[N]4[Pt+2]([OH])([O]C(=O)Cc1ccc(Br)cc1)[N]3C=CC=2.N[C@H]1CCCC[C@@H]1N [Complex 6, [Pt^IV(5,6-Me2phen)(SS-DACH)(4-BPA)(OH)]^2+] | 21 ± 5 nM | 100 ± 20 nM | 7 ± 2 nM | 19 ± 0.9 nM | 30 min | partial reduction; also recorded: traces of platinum(IV) species were still observed | 496 ± 14 RFU | 598 ± 14 RFU | 643 ± 14 RFU | 35 ± 5 nM | 20 ± 3 nM | 22 ± 4 nM | 10 ± 2 nM | 23 ± 5 nM | 1.07 | 1.0701 | 10 ± 2 nM | 6 ± 2 nM | 1 ± 0.6 nM | 7 ± 2 nM | fold more potent than cisplatin ([14]; ADDP-resistant ovarian variant, ratio of GI50 values): ~4700 fold; fold more potent than 56MESS [15, 17]: 4.6 fold; fold more potent than cisplatin [15, 17]: 1200 fold
N[C@H]1CCCC[C@@H]1N.O=C([O-])Cc1ccc(Br)cc1.[OH-].[Pt+4].c1cnc2c(c1)ccc1cccnc12 [Complex 5, [Pt^IV(phen)(SS-DACH)(4-BPA)(OH)]^2+] | 850 ± 240 nM | 960 ± 120 nM | 200 ± 20 nM | 450 ± 10 nM | 15 to 20 min | partial reduction | 281 ± 16 RFU | 399 ± 12 RFU | 478 ± 9 RFU | 1100 ± 230 nM | 380 ± 50 nM | 457 ± 70 nM | 320 ± 20 nM | 350 ± 20 nM | 0.87 | 0.8765 | 320 ± 20 nM | 250 ± 20 nM | 110 ± 11 nM | 190 ± 20 nM | 
